# Molecular target: T1, E3 ubiquitin-protein ligase pellino homolog 1 (Homo sapiens, UniProt Q96FA3)
# T1 sequence (Q96FA3 whole entry): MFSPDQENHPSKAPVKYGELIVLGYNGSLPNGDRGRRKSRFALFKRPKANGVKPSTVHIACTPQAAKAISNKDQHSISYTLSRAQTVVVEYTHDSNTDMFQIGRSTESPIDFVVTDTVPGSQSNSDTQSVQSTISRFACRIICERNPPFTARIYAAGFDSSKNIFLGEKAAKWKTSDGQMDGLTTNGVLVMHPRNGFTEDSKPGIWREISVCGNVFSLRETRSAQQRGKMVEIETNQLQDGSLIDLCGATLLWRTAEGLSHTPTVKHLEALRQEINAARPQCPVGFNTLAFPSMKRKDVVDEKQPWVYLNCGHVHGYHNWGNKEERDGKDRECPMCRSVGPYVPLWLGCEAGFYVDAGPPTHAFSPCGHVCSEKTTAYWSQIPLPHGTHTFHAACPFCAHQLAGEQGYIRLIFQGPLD
# Assay: Binding affinity to PELI1 FHA domain (unknown origin) expressed in Escherichia coli BL21(DE3) competent cell measured after 1 min by fluorescence quenching assay
# Details: not given; call rule not given here
row,Compound,Kd
1,CNC(=O)/C=C/c1ccc(/C=C/c2cc(O)cc(O)c2)cc1,Not Active
2,Oc1cc(O)cc(/C=C/c2ccc(-c3ccsc3)cc2)c1,Not Active
3,Oc1ccc(-c2ccc(/C=C/c3cc(O)cc(O)c3)cc2)cc1,Not Active
4,O=[N+]([O-])c1cccc(-c2ccc(/C=C/c3cc(O)cc(O)c3)cc2)c1,Not Active
5,O=C(/C=C/c1ccc(/C=C/c2cc(O)cc(O)c2)cc1)N1CCCCC1,Not Active
6,O=C(/C=C/c1ccccc1)Nc1ccc(O)c(/C=C/c2cc(O)cc(O)c2)c1,Not Active
7,O=C(/C=C/c1ccccc1)Nc1ccc(/C=C/c2cc(O)cc(O)c2)cc1,Not Active
8,C/C=C/C(=O)Nc1ccc(/C=C/c2cc(O)cc(O)c2)cc1,Not Active
9,CN(C)C(=O)/C=C/c1ccc(/C=C/c2cc(O)cc(O)c2)cc1,Not Active
10,CCCNC(=O)/C=C/c1ccc(/C=C/c2cc(O)cc(O)c2)cc1,Not Active
11,NC(=O)/C=C/c1ccc(/C=C/c2cc(O)cc(O)c2)cc1,Not Active
12,Oc1cc(O)cc(/C=C/c2ccc(-c3ccoc3)cc2)c1,Not Active
13,Oc1cc(O)cc(/C=C/c2ccc(-c3ccccc3)cc2)c1,Not Active
14,Oc1cc(O)cc(/C=C/c2ccc(-c3cccc(O)c3)cc2)c1,Not Active

# Same assay, conditions: read-out: Kd
row,Compound,Kd
1,CNC(=O)/C=C/c1ccccc1,212 µM
2,CNC(=O)/C=C/c1ccc(O)c(/C=C/c2cc(O)cc(O)c2)c1,59.9 µM
3,NC(=O)/C=C/c1ccc(O)c(/C=C/c2cc(O)cc(O)c2)c1,55.7 µM
4,O=C(/C=C/c1cc(/C=C/c2cc(O)cc(O)c2)ccc1O)N1CCCCC1,37.9 µM
5,CNC(=O)/C=C/c1cc(/C=C/c2cc(O)cc(O)c2)ccc1O,42.3 µM
6,O=C(/C=C/c1ccccc1)Nc1cc(/C=C/c2cc(O)cc(O)c2)ccc1O,124 µM
7,C/C=C/C(=O)Nc1cc(/C=C/c2cc(O)cc(O)c2)ccc1O,126 µM
8,O=C(/C=C/c1ccc(O)c(/C=C/c2cc(O)cc(O)c2)c1)N1CCCCC1,26.9 µM
9,CCCNC(=O)/C=C/c1cc(/C=C/c2cc(O)cc(O)c2)ccc1O,44.4 µM
10,C/C=C/C(=O)Nc1ccc(O)c(/C=C/c2cc(O)cc(O)c2)c1,64.3 µM
11,O=C(/C=C/c1ccccc1)Nc1cc(O)ccc1/C=C/c1cc(O)cc(O)c1,51.5 µM
12,C/C=C/C(=O)Nc1cc(O)ccc1/C=C/c1cc(O)cc(O)c1,86.9 µM
13,CN(C)C(=O)/C=C/c1cc(O)ccc1/C=C/c1cc(O)cc(O)c1,104 µM
14,NC(=O)/C=C/c1cc(O)ccc1/C=C/c1cc(O)cc(O)c1,40.1 µM
15,O=C(/C=C/c1cc(O)ccc1/C=C/c1cc(O)cc(O)c1)N1CCCCC1,96.3 µM
16,CNC(=O)/C=C/c1cc(O)ccc1/C=C/c1cc(O)cc(O)c1,39.3 µM
17,CCCNC(=O)/C=C/c1cc(O)ccc1/C=C/c1cc(O)cc(O)c1,70.1 µM
18,O=c1ccc2ccc(O)c(O)c2o1 [DAPHNETIN],336 µM
19,O=C(Nc1ccccc1)c1cccnc1 [NICOTINANILIDE],336 µM
20,Oc1ccc(/C=C/c2cc(O)cc(O)c2)cc1 [RESVERATROL],125 µM
21,COc1cc(C=O)ccc1O [VANILLIN],228 µM
